The subject of series [1] is L1210 murine leukemia cells. The series is described as follows: Cytotoxicity (parallel assay) against L1210 murine leukemia cells. Format: cell-based. The following applies: for inhibition at 0.1 µg/mL / inhibition at 0.25 µg/mL / inhibition at 0.5 µg/mL / inhibition at 1 µg/mL: Mus musculus; for inhibition at 0.1 µg/mL: L1210, 0.1 μg/mL; for inhibition at 0.25 µg/mL: L1210, 0.25 μg/mL; for inhibition at 0.5 µg/mL: L1210, 0.5 μg/mL; for inhibition at 1 µg/mL: L1210, 1.0 μg/mL; for cytotoxic activity compared with other compounds / activity relative to crambescidin 816 (1): L1210 cells. The text has this:
However, crambescidins 674 (9) and 687 (10) without a spermidine derivative unit are less than 5 times as active than 1.
Cytotoxicities against L1210 Cells for Compounds 1, 6-12,

Series [2] deals with Herpes simple-x, Type I virus (HSV-I). The following applies: cited from earlier work.
In another series the test system is Ca^2+ channel. The following applies: cited from earlier work.
Another series deals with L1210 cells. The following applies: cited from earlier work.
The conditions of series [3]: virus not named; cited from earlier work.
The test system of a further series is Rhodotorula glutinis. In words: Antimicrobial assay against Rhodotorula glutinis. Format: cell-based.
The next series relates to P388 cells. The following applies: cited from earlier work.
The subject of the next series is KB cells. The following applies: cited from earlier work.
The next series relates to Candida albicans. The following applies: cited from earlier work.
For the next series, the system named is HSV. The following applies: cited from earlier work.
The mark [4] stands for this setting: times as active than 1, without a spermidine derivative unit.

Where two headings read alike, the source gives them in different places.

`CCC1C=CCCC2(CC3CCC4(O)C(C(=O)OCCCCCCCCCCCCCCCC(=O)N(CCCN)CC(O)CCN)C5(CCCC(C)O5)NC(=N2)N34)O1` (centres unmarked) [Compound 1, crambescidin 816, reference compound]: in [1], testing at 0.1 µg/mL gave an inhibition of 0%, the inhibition at 0.25 µg/mL was determined as 70%, the inhibition at 0.5 µg/mL stood at 97% and 1 µg/mL produced 100% inhibition. For the same compound, in [2], the “antiviral activity against HSV-I” value was “exhibited antiviral activity”. Besides, the “Ca^2+ channel blocker” value in the series with Ca^2+ channel is “potent calcium channel blocker”. Further, the “Ca^2+ channel blocker” value with Ca^2+ channel (listed as crambescidin 816 (1)) was “strong Ca^2+ channel blocker”.
In the case of `CCC1C=CCCC2(CC3CCC4C(C(=O)OCCCCCCCCCCCCCCCC(=O)N(CCCN)CC(O)CCN)C5(CCCC(C)O5)NC(=N2)N34)O1` (centres unmarked) [Compound 5, 13, 14, 15-Isocrambescidin 800], the “growth inhibition / cytotoxicity, L1210 cells” value with L1210 cells is on record as “substantially less cytotoxic”. Also, in series [3], the antiviral activity result is “no observed antiviral activity”.
In the case of `CCC1C=CCCC2(CC3CCC4C(C(=O)OCCCCCCCCCCCCCCCC(=O)N(CCCN)CCCCN)C5(CCCC(C)O5)NC(=N2)N34)O1` (centres unmarked) [Compound 6, ptilomycalin A], in [1], the “cytotoxic activity compared with other compounds” value is recorded as “slightly more active than 1”, the inhibition at 0.1 µg/mL was found to be 20%, the inhibition at 0.25 µg/mL came to 60% and testing at 0.5 µg/mL gave an inhibition of 99%. Also, in [1], 1 µg/mL produced 100% inhibition. Also, the “antimicrobial activity at 2 μg/well” value in the series with Rhodotorula glutinis was “active”. In the series on L1210 cells, the “growth inhibition / cytotoxicity, L1210 cells” value was “shown cytotoxicity”. The “cytotoxicity, P388 cells” value in the series with P388 cells was “shown cytotoxicity”. Also, the “cytotoxicity, KB cells” value in the series on KB cells is reported as “shown cytotoxicity”. Besides, in the series on Candida albicans, the “antifungal activity against Candida albicans” value was “antifungal activity”. Moreover, the “antiviral activity (HSV)” value in the series on HSV is on record as “antiviral activity (HSV)”.
Take `CCC1C=CCCC2(CC3CCC4(O)C(C(=O)OCCCCCCCCCCCCCCCC(=O)N(CCCN)CC(Cl)CCN)C5(CCCC(C)O5)NC(=N2)N34)O1` (centres unmarked) [Compound 7, Crambescidin 834]: the “activity relative to crambescidin 816 (1)” value in [1] (times more active than 1) was “about 5 times”. Also, in series [1], the inhibition at 0.1 µg/mL was 90%, at 0.25 µg/mL the inhibition was 95%, at 0.5 µg/mL the inhibition was 95% and the inhibition at 1 µg/mL was found to be 100%.
For `CCC1C=CCCC2(CC3CCC4C(C(=O)OCCCCCCCCCCCCCCCC(=O)N(CCCN)CC(Cl)CCN)C5(CCCC(C)O5)NC(=N2)N34)O1` (centres unmarked) [Compound 8, Crambescidin 818], in [1] (times more active than 1), the “activity relative to crambescidin 816 (1)” value is recorded as “about 5 times”. In series [1], this compound showed an inhibition at 0.1 µg/mL of 90%, an inhibition at 0.25 µg/mL of 95%, an inhibition at 0.5 µg/mL of 95% and an inhibition at 1 µg/mL of 100%.
As for `CCC1C=CCCC2(CC3CCC4(O)C(C(=O)OCCCCCCCCCCCCCCCC(=O)O)C5(CCCC(C)O5)NC(=N2)N34)O1` (centres unmarked) [Compound 9, Crambescidin 673], in series [1] (setting [4]), the “activity relative to crambescidin 816 (1)” value is “less than 5 times”. For the same compound, in [1], the inhibition at 0.1 µg/mL was found to be 0%, at 0.25 µg/mL the inhibition was 0%, the inhibition at 0.5 µg/mL amounted to 0% and testing at 1 µg/mL gave an inhibition of 100%.
For `CCC1C=CCCC2(CC3CCC4(O)C(C(=O)OCCCCCCCCCCCCCCCC(=O)OC)C5(CCCC(C)O5)NC(=N2)N34)O1` (centres unmarked) [Compound 10, Crambescidin 687], in series [1] (setting [4]), the “activity relative to crambescidin 816 (1)” value is “less than 5 times”. In [1], this compound came in with an inhibition at 0.1 µg/mL of 0%, an inhibition at 0.25 µg/mL of 0%, an inhibition at 0.5 µg/mL of 0% and an inhibition at 1 µg/mL of 100%.
For `CCC1C=CCCC2(CC3CCC4C(C(=O)OCCCCCCCCCCCCCCCC(=O)O)C5(CCCC(C)O5)NC(=N2)N34)O1` (centres unmarked) [Compound 11, Crambescidin 657], the “Inhibition (%)” value in series [1] (0.1 μg/mL) is 93%. In series [1] (listed as crambescidin 657 (11)), the “cytotoxic activity compared with other compounds” value is given as “most cytotoxic compound in the test”. The compound further showed an inhibition at 1 µg/mL in series [1] of 100%.
`CCC1C=CCCC2(CC3CCC4C(C(=O)OCCCCCCCCCCCCCCCC(=O)O)C5(CCCC(C)O5)NC(=N2)N34)O1` (centres unmarked) [Compound 12, 13,14,15-Isocrambescidin 657]: the “Inhibition (%)” value in series [1] (0.1 μg/mL) came out at 0%; in series [1] (0.25 μg/mL), 0%; in [1] (0.5 μg/mL), 0%; in [1] (1.0 μg/mL), 100%. For the same compound, the “inhibition at 5 μg/mL” value in series [1] (5 μg/mL) is on record as “no inhibition”. For the same compound, the “cytotoxic activity compared with other compounds” value in [1] (listed as 13, 14, 15-Isocrambescidin 657 (12)) is “substantially less active”.
`CCC1C=CCCC2(CC3CCC4C(C(=O)OCCCCCCCCCCCCCCCC(=O)OC)C5(CCCC(C)O5)NC(=N2)N34)O1` (centres unmarked) [Methyl 11]: in series [1], the inhibition at 0.1 µg/mL worked out at 0%, the inhibition at 0.25 µg/mL turned out to be 0%, the inhibition at 0.5 µg/mL was 0% and the inhibition at 1 µg/mL was found to be 0%.

These data come from patent publication US6028077A, “Crambescidin compounds” (priority 1998, dated 2000).
